Source: US8889667B2 (Agios Pharmaceuticals, Inc, priority 2010, dated 2014)

Target: PKM2 (Homo sapiens, UniProt P14618)
Assay: PKM2 Assay (activation, LDH-coupled, absorbance at 340 nm)
Type: biochemical
Protocol: • PKM2 stock enzyme solution was diluted in Reaction Buffer • 2 μL of compound was added into each well first, and then 180 μL of the Reaction Mix was added. • Reaction mixture with compound (without ADP) was incubated for 30 minutes at 4° C. • Plates were re-equilibrated to room temperature prior to adding 20 μL ADP to initiate the reaction. • Reaction progress was measured as changes in absorbance at 340 nm wavelength at room temperature (25° C.) Reaction Mix: PKM2 (50 ng/well), ADP (0.7 mM), PEP (0.15 mM), NADH (180 μM), LDH (2 units) in Reaction Buffer Reaction Buffer: 100 mM KCl, 50 mM Tris pH 7.5, 5 mM MgCl2, 1 mM DTT, 0.03% BSA.
Representative compounds of the invention were tested for their ability to activate PKM2 using the above assay. For simplicity, the activation activity of these compounds is represented as an AC50 in Tables 4 and 5 and throughout the application. […] “B” refers to an activator of PKM2 with an EC50 between 100 nM and 500 nM. “C” refers to an activator of PKM2 with an EC50 between 500 nM and 1000 nM. “D” refers to an activator of PKM2 with an EC50 between 1 μM and 20 μM. “E” refers a compound whose activation of PKM2 was not measurable. “N/C” refers to AC50 data not available.

Chain of PKM2 (P14618 whole entry): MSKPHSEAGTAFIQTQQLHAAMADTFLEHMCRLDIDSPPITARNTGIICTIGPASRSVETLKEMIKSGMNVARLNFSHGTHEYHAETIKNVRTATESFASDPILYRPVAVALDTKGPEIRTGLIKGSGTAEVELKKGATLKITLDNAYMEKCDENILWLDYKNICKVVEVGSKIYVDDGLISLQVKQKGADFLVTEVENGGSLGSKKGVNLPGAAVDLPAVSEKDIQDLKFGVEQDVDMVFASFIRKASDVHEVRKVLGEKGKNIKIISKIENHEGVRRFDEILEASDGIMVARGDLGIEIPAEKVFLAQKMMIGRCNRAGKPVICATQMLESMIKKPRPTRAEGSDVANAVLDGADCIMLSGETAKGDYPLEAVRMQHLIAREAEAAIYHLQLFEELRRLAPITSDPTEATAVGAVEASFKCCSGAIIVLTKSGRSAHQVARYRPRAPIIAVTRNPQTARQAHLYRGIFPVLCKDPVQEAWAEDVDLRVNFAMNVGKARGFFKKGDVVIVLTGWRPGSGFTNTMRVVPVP

| Molecule | AC50 (Table 4) [nM] | AC50 (Table 5) [nM] |
| --- | --- | --- |
| COc1cccc(CN2CCN(C(=O)c3ccc(NS(=O)(=O)c4cccc5cccnc45)cc3)[C@H](C)C2)c1OC [Compound 130, (R)—N-(4-(4-(2,3-dimethoxybenzyl)-2-methylpiperazine-1-carbonyl)phenyl)quinoline-8-sulfonamide] | < 100 | – |
| C[C@H]1CN(Cc2ccc(F)cc2)CCN1C(=O)c1ccc(NS(=O)(=O)c2cccc3cccnc23)cc1 [Compound 152, (S)—N-(4-(4-(4-fluorobenzyl)-2-methylpiperazine-1-carbonyl)phenyl)quinoline-8-sulfonamide] | < 100 | – |
| N-(4-(3,5-dimethylpiperazine-1-carbonyl)phenyl)quinoline-8-sulfonamide [Compound 104] | 100 to 500 | – |
| C[C@@H]1CN(CC2CCOC2)CCN1C(=O)c1ccc(NS(=O)(=O)c2cccc3cccnc23)cc1 (stereo partly drawn) [Compound 115, N-(4-((2R)-2-methyl-4-((tetrahydrofuran-3-yl)methyl)piperazine-1-carbonyl)phenyl)quinoline-8-sulfonamide] | 100 to 500 | – |
| C[C@H]1CN(Cc2ccc(F)cc2)CCN1C(=O)c1ccc(NS(=O)(=O)c2cccc3cccnc23)cc1Cl [Compound 184, (S)—N-(3-chloro-4-(4-(4-fluorobenzyl)-2-methylpiperazine-1-carbonyl)phenyl)quinoline-8-sulfonamide] | 100 to 500 | – |
| O=C(OCC1CCCO1)N1CCN(C(=O)c2ccc(NS(=O)(=O)c3cccc4cccnc34)c(OC(F)(F)F)c2)CC1 (stereo not shown) [Compound 316, (tetrahydrofuran-2-yl)methyl-4-(4-(quinoline-8-sulfonamido)-3-(trifluoromethoxy)benzoyl)piperazine-1-carboxylate] | – | 1000 to 20000 |
| C[C@H]1CN(Cc2cc(F)cc(F)c2)CCN1C(=O)c1ccc(NS(=O)(=O)c2cccc3cccnc23)cc1Cl [Compound 179] | 100 to 500 | – |
| O=C(OCCC1CCCC1)N1CCN(C(=O)c2ccc(NS(=O)(=O)c3cccc4cccnc34)c(OC(F)(F)F)c2)CC1 [Compound 312, 2-cyclopentylethyl-4-(4-(quinoline-8-sulfonamido)-3-(trifluoromethoxy)benzoyl)piperazine-1-carboxylate] | – | 500 to 1000 |
| CC1CN(Cc2cc(F)cc(F)c2)CC(C)N1C(=O)c1ccc(NS(=O)(=O)c2cccc3cccnc23)cc1 (stereo not shown) [Compound 194, N-(4-(4-(3,5-difluorobenzyl)-2,6-dimethylpiperazine-1-carbonyl)phenyl)quinoline-8-sulfonamide] | < 100 | – |
| COc1ccccc1N1CCN(C(=O)c2ccc(NS(=O)(=O)c3cccc4cccnc34)cc2)C(C)C1 (stereo not shown) [Compound 223, N-(4-(4-(2-methoxyphenyl)-2-methylpiperazine-1-carbonyl)phenyl)quinoline-8-sulfonamide] | < 100 | – |
| C[C@H]1CN(CC2CCCC2)CCN1C(=O)c1ccc(NS(=O)(=O)c2cccc3cccnc23)cc1 [Compound 140, (S)—N-(4-(4-(cyclopentylmethyl)-2-methylpiperazine-1-carbonyl)phenyl)quinoline-8-sulfonamide] | < 100 | – |
| C[C@H]1CN(Cc2ccc(Cl)c(F)c2)CCN1C(=O)c1ccc(NS(=O)(=O)c2cccc3cccnc23)cc1Cl [Compound 185, (S)—N-(3-chloro-4-(4-(4-chloro-3-fluorobenzyl)-2-methylpiperazine-1-carbonyl)phenyl)quinoline-8-sulfonamide] | 500 to 1000 | – |
| C[C@@H]1CN(C(=O)O[C@@H]2CCCOC2)CCN1C(=O)c1ccc(NS(=O)(=O)c2cccc3cccnc23)cc1 [Compound 127, (R)—((R)-tetrahydro-21′-pyran-3-yl)-3-methyl-4-(4-(quinoline-8-sulfonamido)benzoyl)piperazine-1-carboxylate] | 100 to 500 | – |
| C[C@H]1CN(CC2CCCC2)CCN1C(=O)c1ccc(NS(=O)(=O)c2cccc3cccnc23)cc1Cl [Compound 186, (S)—N-(3-chloro-4-(4-(cyclopentylmethyl)-2-methylpiperazine-1-carbonyl)phenyl)quinoline-8-sulfonamide] | < 100 | – |
| C[C@@H]1CN(Cc2ccc(Cl)c(F)c2)CCN1C(=O)c1ccc(NS(=O)(=O)c2cccc3cccnc23)cc1 [Compound 125, (R)—N-(4-(4-(4-chloro-3-fluorobenzyl)-2-methylpiperazine-1-carbonyl)phenyl)quinoline-8-sulfonamide] | < 100 | – |
| CC(c1c(F)cc(F)cc1F)N1CCN(C(=O)c2ccc(NS(=O)(=O)c3cccc4cccnc34)cc2)[C@@H](C)C1 (stereo partly shown) [Compound 172] | 100 to 500 | – |
| CC(c1c(F)cc(F)cc1F)N1CCN(C(=O)c2ccc(NS(=O)(=O)c3cccc4cccnc34)cc2)[C@H](C)C1 (stereo partly shown) [Compound 167] | < 100 | – |
| C[C@@H]1CN(C(=O)c2ccccn2)CCN1C(=O)c1ccc(NS(=O)(=O)c2cccc3cccnc23)cc1 [Compound 103] | 100 to 500 | – |

Now from value to molecule:

| AC50 (Table 4) [nM] | AC50 (Table 5) [nM] | Molecule |
| --- | --- | --- |
| – | 1000 to 20000 | O=C(c1ccc(NS(=O)(=O)c2cccc3cccnc23)cc1Cl)N1CCN(CC2CCCO2)CC1 (stereo not shown) [Compound 441, N-(3-chloro-4-(4-((tetrahydrofuran-2-yl)methyl)piperazine-1-carbonyl)phenyl)quinoline-8-sulfonamide] |
| – | < 100 | O=C(c1ccc(NS(=O)(=O)c2cccc3cccnc23)cc1)N1CCN(C[C@@H]2CCOC2)CC1 [Compound 445, (R)— and (S)—N-(4-(4-((tetrahydrofuran-3-yl)methyl)piperazine-1-carbonyl)phenyl)quinoline-8-sulfonamide] |
| – | < 100 | O=C(c1ccc(NS(=O)(=O)c2cccc3cccnc23)cc1)N1CCN(C2(c3ccccc3)CCC2)CC1 [Compound 408, N-(4-(4-(1-phenylcyclobutyl)piperazine-1-carbonyl)phenyl)quinoline-8-sulfonamide] |
| – | 100 to 500 | O=C(c1ccc(NS(=O)(=O)c2cccc3cccnc23)cc1F)N1CCN(CC2CCCCO2)CC1 (stereo not shown) [Compound 435, N-(3-fluoro-4-(4-((tetrahydro-2H-pyran-2-yl)methyl)piperazine-1-carbonyl)phenyl)quinoline-8-sulfonamide] |
| – | 100 to 500 | COc1cc(C(=O)N2CCN(C(=O)c3csnn3)CC2)ccc1NS(=O)(=O)c1cccc2cccnc12 [Compound 321, N-(4-(4-(1,2,3-thiadiazole-4-carbonyl)piperazine-1-carbonyl)-2-methoxyphenyl)quinoline-8-sulfonamide] |
| – | < 100 | C[C@@H](c1ccccc1)N1CCN(C(=O)c2ccc(NS(=O)(=O)c3cccc4cccnc34)cc2)CC1 [Compound 387, (S)—N-(4-(4-(1-phenylethyl)piperazine-1-carbonyl)phenyl)quinoline-8-sulfonamide] |
| – | 100 to 500 | O=C(c1ccc(NS(=O)(=O)c2cccc3cccnc23)c(OC(F)(F)F)c1)N1CCN(Cc2ccc(C(F)(F)F)cc2)CC1 [Compound 334, N-(2-(trifluoromethoxy)-4-(4-(4-(trifluoromethyl)benzyl)piperazine-1-carbonyl)phenyl)quinoline-8-sulfonamide] |
| – | < 100 | O=C(c1ccc(NS(=O)(=O)c2cccc3cccnc23)cc1)N1CCN(C(=O)C2CCCCO2)CC1 (stereo not shown) [Compound 430, N-(4-(4-(tetrahydro-2H-pyran-2-carbonyl)piperazine-1-carbonyl)phenyl)quinoline-8-sulfonamide] |
| – | 100 to 500 | O=C(c1ccc(NS(=O)(=O)c2cccc3cccnc23)c(OC(F)(F)F)c1)N1CCN(C(=O)c2cscn2)CC1 [Compound 324, N-(4-(4-(thiazole-4-carbonyl)piperazine-1-carbonyl)-2-(trifluoromethoxy)phenyl)quinoline-8-sulfonamide] |
| – | 100 to 500 | O=C(c1ccc(NS(=O)(=O)c2cccc3cccnc23)c(OC(F)(F)F)c1)N1CCN(Cc2c[nH]cn2)CC1 [Compound 381, N-(4-(4-((1H-imidazol-4-yl)methyl)piperazine-1-carbonyl)-2-(trifluoromethoxy)phenyl)quinoline-8-sulfonamide] |
| – | 100 to 500 | O=C(c1ccc(NS(=O)(=O)c2cccc3cccnc23)cc1)N1CCN(C(=O)C2CCOC2)CC1 (stereo not shown) [Compound 418, N-(4-(4-(tetrahydrofuran-3-carbonyl)piperazine-1-carbonyl)phenyl)quinoline-8-sulfonamide] |
| – | 100 to 500 | O=C(c1ccc(NS(=O)(=O)c2cccc3cccnc23)nc1)N1CCN(Cc2ccc(F)cc2)CC1 [Compound 412, N-(5-(4-(4-fluorobenzyl)piperazine-1-carbonyl)pyridin-2-yl)quinoline-8-sulfonamide] |
| – | < 100 | O=C(c1ccc(NS(=O)(=O)c2cccc3cccnc23)cc1)N1CCN(C2(c3ccccc3)CC2)CC1 [Compound 330, N-(4-(4-(1-phenylcyclopropyl)piperazine-1-carbonyl)phenyl)quinoline-8-sulfonamide] |
| – | 100 to 500 | O=C(c1ccc(NS(=O)(=O)c2cccc3cccnc23)nc1)N1CCN(Cc2cc(F)cc(F)c2)CC1 [Compound 413, N-(5-(4-(3,5-difluorobenzyl)piperazine-1-carbonyl)pyridin-2-yl)quinoline-8-sulfonamide] |
| – | < 100 | O=C(c1ccc(NS(=O)(=O)c2cccc3cccnc23)cc1)N1CCN(Cc2cc[nH]n2)CC1 [Compound 384] |
| – | < 100 | O=C(c1ccc(NS(=O)(=O)c2cccc3cccnc23)cc1F)N1CCN(CC2CCCO2)CC1 (stereo not shown) [Compound 437, N-(3-fluoro-4-(4-((tetrahydrofuran-2-yl)methyl)piperazine-1-carbonyl)phenyl)quinoline-8-sulfonamide] |
